{
  "source": "patent US20080104718A1",
  "about": "“Transgenic Non-Human Animal Models of Ischemia-Reperfusion Injury and Uses Thereof” (UNIVERSITY OF ROCHESTER, priority 2004, published 2008)",
  "key": {"[1]": {"test_system": "isolated heart from WT-p90RSK-Tg mice and non-transgenic littermate control (NLC) mice", "experiment": "Cardiac damage: CK and LDH release from the isolated heart after ischemia/reperfusion", "set-up": "species or system mouse", "settings": "captopril 50 μM pretreatment", "procedure": "Creatine kinase (CK) and lactate dehydrogenase (LDH) were measured by the University of Rochester, Department of Clinical Chemistry, and reported in clinical indices (units/L) as means ±S.D.\nFor isolated heart from WT-p90RSK-Tg mice and non-transgenic littermate control (NLC) mice were studied using Langendorff preparation. Animals were anaesthetized with ketamine (50 mg/kg) and xylazine (2.5 mg/kg), i.p., and heparinized (5000 U/kg), i.p., to protect the heart against microthrombi. The chest was opened at the sternum and the heart, after cannulation with a 23 G phalanged stainless steel cannula, quickly removed. The heart was retrogradely perfused through the aorta in a non-circulating Langendorff apparatus with KH buffer (118 mM NaCl, 4.7 mM KCl, 1.2 mM MgSO4, 1.2 mM KH2PO4, 2.5 mM CaCl2, 25 mM NaHCO3, 0.5 mM Na-EDTA and 11 mM glucose) at a constant pressure of 80 mmHg. The buffer was saturated with 95% O2/5% CO2 (v/v, pH 7.4, 37° C.) for 50 min. A homemade water-filled balloon was inserted into the left ventricle through the left atrium and was adjusted to a left ventricular end-diastolic pressure of 5 mmHg during initial equilibration. The distal end of the catheter was connected to an ETH-200 Bridge Amplifier (CB Sciences, Inc) and PowerLab/200 (AD Instruments) data acquisition system via a pressure transducer (DELTRAN II, Utah Medical Products, Inc., Midvale, Utah). […]"}, "NHE1 [2]": {"molecular_target": "NHE1 (Homo sapiens, UniProt P19634)", "sequence (P19634 whole entry)": "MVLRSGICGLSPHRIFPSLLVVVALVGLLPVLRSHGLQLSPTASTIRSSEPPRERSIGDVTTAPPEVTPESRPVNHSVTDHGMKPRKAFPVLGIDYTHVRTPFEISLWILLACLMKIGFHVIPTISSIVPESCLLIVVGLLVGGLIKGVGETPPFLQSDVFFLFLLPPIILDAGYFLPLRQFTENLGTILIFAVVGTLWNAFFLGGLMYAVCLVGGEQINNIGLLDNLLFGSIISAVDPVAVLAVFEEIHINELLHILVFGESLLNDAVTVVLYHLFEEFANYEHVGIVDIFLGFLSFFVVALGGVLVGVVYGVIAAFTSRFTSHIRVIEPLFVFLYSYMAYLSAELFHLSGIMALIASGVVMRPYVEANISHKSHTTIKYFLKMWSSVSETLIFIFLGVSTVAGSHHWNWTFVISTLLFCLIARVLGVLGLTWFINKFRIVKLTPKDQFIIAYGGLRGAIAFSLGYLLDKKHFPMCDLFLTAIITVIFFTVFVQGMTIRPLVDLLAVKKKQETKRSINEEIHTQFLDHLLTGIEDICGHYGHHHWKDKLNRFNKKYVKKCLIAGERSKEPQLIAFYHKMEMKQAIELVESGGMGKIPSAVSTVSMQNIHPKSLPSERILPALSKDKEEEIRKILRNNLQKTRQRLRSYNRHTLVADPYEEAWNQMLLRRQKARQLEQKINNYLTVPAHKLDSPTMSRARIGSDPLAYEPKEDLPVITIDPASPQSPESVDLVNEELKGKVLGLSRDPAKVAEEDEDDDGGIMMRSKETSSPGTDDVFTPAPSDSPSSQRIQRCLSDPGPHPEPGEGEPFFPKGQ", "settings": "cited from earlier work; for mortality in patients experiencing myocardial infarction: clinical trials GUARDIAN and ESCAMI"}, "NHE1 [3]": {"molecular_target": "T1, NHE1 (Rattus norvegicus, UniProt P26431)", "T1 construct": "Primary cultures of cardiac myocytes were prepared from ventricles of 1 to 3-day-old neonatal Wistar rats; endogenous in cells; host or cells: primary neonatal Wistar rat ventricular cardiomyocytes, transduced with Ad.LacZ or Ad.DN-RSK; NHE1 itself not transfected", "experiment": "NHE1 activity (rate of pHi recovery after acid load, BCECF-AM) in neonatal rat cardiomyocytes", "type": "cell-based", "settings": "100 μM H2O2", "procedure": "Primary cultures of cardiac myocytes were prepared from ventricles of 1 to 3-day-old neonatal Wistar rats (Akimoto et al., “Heparin and Heparin Sulfate Block Angiotensin II-Induced Hypertrophy in Cultured Neonatal Rat Cardiomyocytes. A possible Role of Intrinsic Heparin-Like Molecules in Regulation of Cardiomyocyte Hypertrophy,” Circulation 93:810-816 (1996), which is hereby incorporated by reference in its entirety). Briefly, cells were dissociated by collagenase II (Worthington Biochem, NJ) from the ventricles and plated at a density of 1×10^5 cells/cm^2 on 25 mm collagen-coated coverslips in Dulbecco's modified Eagle's medium (DMEM) with 10% fetal bovine serum and 10% horse serum. After 6 hrs of plating the isolated cardiomyocytes, 10 μM cytosine arabinoside (Ara C) was added and the cells were cultured 24 hrs, after which the culture medium was changed to DMEM with 10 μM Ara C in 10% fetal bovine serum.\nIsolated neonatal cardiomyocytes were cultured on 25 mm glass coverslips. The intracellular pH indicator BCECF-AM was incubated with DMEM without FBS for 30 min at 37° C. (Ozkan et al., “A Rapid Method for Measuring Intracellular pH Using BCECF-AM,” Biochem Biophys Acta 1572: 143-148 (2002), which is hereby incorporated by reference in its entirety). […] BCECF-AM was excited at 490 and 440 nm, and the emission fluorescence recorded at 500 nm. […]"}, "H9c2 cells": {"test_system": "H9c2 cells", "experiment": "Anoxia/reoxygenation (A/R)-induced apoptosis in transfected H9c2 cells (TUNEL)", "type": "cell-based, rat", "from_the_text": "Ad.LacZ (LACZ gene in an adenoviral vector) and Ad.DN-RSK were transduced into neonatal rat cardiomyocytes at varying MOI, as shown in FIG. 1. There was a concentration-dependent expression of DN-RSK (Fire 1) with expression greater than endogenous RSK at 100 MOI. WT-RSK, WT-NHE1, and NHE S703A cDNAs were inserted into pLL3.7-IRES-EGFP to make a pLL3.7-WT-RSK-IRES-EGFP expression vector. These vectors were transfected into H9c2 rat embryonic myoblasts using lipofectamine 2000 (Invitrogen, Carlsbad, Calif.). Cells were cultured for 24 hr to allow sufficient protein expression, then cells were exposed to anoxia. Cells were placed for 12 hr in the anoxia chamber (5% CO2 and 95% N2) and after 24 hr, reoxygenation was performed by changing the medium and placing cells in an air incubator (5% CO2 and 95% air). After 24 hr cell death was detected by TUNEL and by cell death detection ELISA kit (Roche Applied Sciences, Indianapolis, Ind.). Only transfected cells identified by EGFP expression were counted to compare the effects of vector alone (pLL3.7-IRES-EGFP) vs. WT-RSK, WT-NHE1 and MHE1-S703A (pLL3.7-WT-RSK-IRES-EGFP, pLL3.7-WT-NHE1-IRES-EGFP and pLL3.7-NHE1-S703A-IRES-EGFP)."}, "PRECE": {"test_system": "PRECE", "experiment": "Relative quantitative RT-PCR of PRECE mRNA in hearts of STZ-injected mice", "type": "in vivo, mouse", "settings": "STZ injection, NLC mice, after 2 weeks", "procedure": "Total RNA isolation, first-strand cDNA synthesis, and relative quantitative reverse transcription-polyinerase chain reaction (RT-PCR) using Ambion's Competimer technology were performed as we described (Aizawa et al., “Role of Phosphodiesterase 3 in NO/cGMP-Mediated Anti-inflammatory Effects in Vascular Smooth Muscle Cells,” Circ Res 93(5):406-413 (2003), which is hereby incorporated by reference in its entirety). Ambion's competimer technology allows one to modulate the amplification of 18S rRNA in the same linear range as the RNAs under study when amplified under the same condition. The following primers were used for PCR analysis: […]"}, "p90RSK": {"test_system": "p90RSK", "experiment": "p90RSK in vitro kinase assay on heart lysates of STZ-injected mice", "type": "in vivo, mouse", "procedure": "Heart powder was homogenized with 3 vol of lysis buffer and centrifuged at 14,000 g (4° C. for 30 min), and protein concentration were determined. p90RSK was immunoprecipitated through the incubation of 1000 μg protein for each sample with 3 μl of the rabbit polyclonal anti-p90RSK (Santa Cruz, Santa Cruz, Calif.) antibody for 3 hrs, the addition of 40 μl of a 1:1 slurry of protein A/Sepharose beads to the extract/antibody mixture, and then incubation for 1 hour at 4° C. This complex was washed, twice each, in cell lysis buffer described above, LiCl buffer (500 mM LiCl 100 mM Tris-HCl (pH 7.6), 0.1% Triton X-100, 1 mM DTT) and wash buffer (20 mM HEPES, pH 7.2, 2 mM EGTA, 100 μM Na3VO4, 10 mM MgCl2, 1 mM DTT, 0.1% Triton X-100). After the final wash and pelleting, S6 kinase substrate peptide was used to determine p90RSK kinase activity, as previously described (Cavet et al., “14-3-3beta is a p90 Ribosomal S6 Kinase (RSK) Isoform 1-Binding Protein That Negatively Regulates RSK Kinase Activity,” J Biol Chem 278(20):18376-18383 (2003), which is hereby incorporated by reference in its entirety). The in vitro kinase assay was performed according to manufacture's protocol using a long S6 kinase substrate peptide (Upstate) to determine radiolabeled phosphate incorporation by scintillation counter. […]"}, "[4]": {"experiment": "Fasting blood glucose in STZ-induced diabetic mice", "type": "in vivo, mouse", "settings": "2 weeks after STZ injection (vehicle 107±8 mg/dl)", "from_the_text": "After a 6 hrs fast, basal blood samples were colleted from the tip of the tail. All blood samples were immediately measured for glucose using Prestige IQ, Blood Glucose Monitoring System (Home Diagnosis, Inc, Ft. Lauderdale, Fla.).\nPreviously, it was reported that PKCP activation is critical in H2O2-mediated p90RSK activation. […] Since the critical role of PKCP activation in diabetes has been extensively studied, it was investigated whether p90RSK is activated in Streptozotocin (STZ)-induced hyperglycemic mice. The current study used STZ-induced diabetic mice, a known useful model for the study of diabetes (Aizawa-Abe et al., “Pathophysiological Role of Leptin in Obesity-related Hypertension,” J Clin Invest 105(9):1243-1252 (2000), which is hereby incorporated by reference in its entirety)."}},
  "data": [
    {"smiles": "C[C@H](CS)C(=O)N1CCC[C@H]1C(=O)O", "note": "[captopril]", "values": [
      {"measurement": "release of CK and LDH", "setting": "[1]; NLC hearts, 40 min global ischemia and 25 min reperfusion", "value": "no beneficial effect"},
      {"measurement": "release of cardiac enzymes (CK and LDH)", "setting": "[1]; WT-p90RSK-Tg hearts, 20 min ischemia and 25 min reperfusion", "value": "significantly reduced"}
    ]},
    {"smiles": "Cc1cc(-n2cccc2)c(S(C)(=O)=O)cc1C(=O)NC(=N)N", "note": "[eniporide]", "values": [
      {"measurement": "mortality in patients experiencing myocardial infarction", "setting": "NHE1 [2]", "value": "no significant reduction in mortality"}
    ]},
    {"smiles": "CC(C)c1ccc(C(=O)NC(=N)N)cc1S(C)(=O)=O", "note": "[cariporide]", "values": [
      {"measurement": "mortality in patients experiencing myocardial infarction", "setting": "NHE1 [2]", "value": "no significant reduction in mortality"},
      {"measurement": "improvement in LV function", "setting": "NHE1 [2]; subgroup of patients who underwent coronary artery bypass grafting", "value": 25, "unit": "%"}
    ]},
    {"smiles": "OO", "note": "[H2O2]", "values": [
      {"measurement": "increase of NHE1 activity", "setting": "NHE1 [3]; LacZ expressing cardiomyocytes", "value": 3, "unit": "fold"},
      {"measurement": "NHE1 activity", "setting": "NHE1 [3]; LacZ expressing cardiomyocytes (basal 0.16±0.02)", "value": "0.49±0.13", "unit": "pHi/min"}
    ]},
    {"smiles": "CCN(c1nc(N)c(C(=O)NC(=N)N)nc1Cl)C(C)C", "note": "[EIPA]", "values": [
      {"measurement": "apoptosis", "setting": "H9c2 cells; A/R + NHE-WT transfected H9c2 cells + EIPA", "value": "39±4", "unit": "%"},
      {"measurement": "apoptosis", "setting": "H9c2 cells; EIPA 5 μM + A/R (12 hr/24 hr) + WT-RSK transfected H9c2 cells", "value": "29.9±5.2", "unit": "%"}
    ]},
    {"smiles": "CN(N=O)C(=O)N[C@H]1C(O)O[C@H](CO)[C@@H](O)[C@@H]1O", "note": "(mixture of isomers) [STZ, Streptozotocin]", "values": [
      {"measurement": "PRECE mRNA expression in heart", "setting": "PRECE", "value": "increased"},
      {"measurement": "p90RSK activation (in vitro kinase assay)", "setting": "p90RSK; DN-p90RSK-Tg mice + STZ", "value": "8009±797", "unit": "cpm"},
      {"measurement": "p90RSK activation (in vitro kinase assay)", "setting": "p90RSK; NLC mice + STZ", "value": "12991±1810", "unit": "cpm"},
      {"measurement": "fasting blood glucose level", "setting": "[4]", "value": "224 ± 5", "unit": "mg/dL"}
    ]}
  ]
}
